The compounds below were run against T1, TgMIC1-MARR (Toxoplasma gondii, UniProt O00834). Conditions: lipid-linked probe immobilised at 5 fmol/spot; 40 µg/ml protein precomplexed with anti-His antibodies; ambient temperature.
T1 construct: gene MIC1
Assay type: binding

T1 sequence (O00834 17-262): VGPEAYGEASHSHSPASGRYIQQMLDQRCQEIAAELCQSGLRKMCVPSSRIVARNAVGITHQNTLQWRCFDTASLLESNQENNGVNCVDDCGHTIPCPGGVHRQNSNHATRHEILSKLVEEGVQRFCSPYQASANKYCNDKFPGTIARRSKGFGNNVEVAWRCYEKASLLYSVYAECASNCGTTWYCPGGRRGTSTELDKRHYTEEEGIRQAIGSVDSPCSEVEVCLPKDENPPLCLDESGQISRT

Row | Compound | Fluorescence signal intensities / TgMIC1-MARR
1 | NeuGcα-6GalNAc-AO [compound 88] | 13,982 fluorescence units
2 | NeuGcα-3Galß-4Glcß-Cer [compound 60] | 12,526 fluorescence units
3 | NeuAcα-3Galß-4Glcß-Cer [compound 59] | 4,327 fluorescence units
4 | NeuGcα-3Galβ-3GlcNAcβ-3Galβ-4Glcß-C30 [compound 39] | 11,075 fluorescence units
5 | NeuAcα-3Galβ-3GlcNAcβ-3Galβ-4Glcß-C30 [compound 38] | 11,580 fluorescence units

The compounds below were run against T2, EtMIC3-MAR1b (thioredoxin-His fusion, microarray) (Eimeria tenella, UniProt B6VCV4). Conditions: lipid-linked probe immobilised at 5 fmol/spot; 40 µg/ml protein precomplexed with anti-His antibodies; ambient temperature.
T2 construct: gene mic3
Assay type: binding

Row | Compound | Fluorescence signal intensities / EtMIC3-MAR1b
6 | NeuAcα-6Galβ-4GlcNAcβ-3Galβ-4Glc-DH [compound 79] | 5,570 fluorescence units
7 | GT1b [compound 109] | 8,121 fluorescence units
8 | NeuAcα-3Galβ-3GlcNAcβ-3Galβ-4Glcß-C30 [compound 38] | 5,423 fluorescence units

What follows are compounds tested against T3, EtMIC3-MAR1b (NMR construct) (Eimeria tenella, UniProt B6VCV4). Conditions: phosphate buffer pH 5.5; sialic acid contacts L175, Y178 and HLT motif.
T3 construct: gene mic3
Assay type: binding

Row | Compound | isotope-filtered NMR NOESY; HADDOCK structure from 9 intermolecular NOEs
9 | CC(=O)N[C@H]1[C@H]([C@H](O)[C@H](O)CO)O[C@@](O[C@H]2[C@@H](O)[C@@H](CO)O[C@@H](O[C@H]3[C@H](O)[C@@H](NC(C)=O)C(O)O[C@@H]3CO)[C@@H]2O)(C(=O)O)C[C@@H]1O (stereo partly drawn) [Siaα2–3Galβ1–4GlcNAc] | intermolecular NOEs

Reference: publication PMC3192848 (PLoS Pathogens, 2011)
